# Measurements as given in PubChem BioAssay AID248 (DTP/NCI, 2004).
# “And” between values parts separate entries of the source, which are not always exact repeats. Identical values can stand only once. Toxic doses and inconclusive results are not listed.
# Test system: L1210 leukemia ip in BDF1 mice, survival T/C
# Assay: NCI In Vivo Anticancer Drug Screen. Data for tumor model L1210 Leukemia (intraperitoneal) in B6D2F1 (BDF1) mice
# Details: endpoint: mean survival time, higher = longer survival
# Procedure, shortened: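 Each compound was tested against a transplantable tumor grown in mice. The endpoint was survival, with treated animals benchmarked against vehicle controls as a simple ratio.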
# [1] = dose: 100.0 mg/kg/injection, schedule: Q04DX003 (ip), vehicle: Klucel (hydroxypropylcellulose) (HPC)
# [2] = dose: 200.0 mg/kg/injection, schedule: Q04DX003 (ip), vehicle: Klucel (hydroxypropylcellulose) (HPC)
# [3] = dose: 400.0 mg/kg/injection, schedule: Q04DX003 (ip), vehicle: Klucel (hydroxypropylcellulose) (HPC)
# [4] = dose: 100.0 mg/kg/injection, schedule: Q04DX003 (ip), vehicle: saline
# [5] = dose: 200.0 mg/kg/injection, schedule: Q04DX003 (ip), vehicle: saline
# [6] = dose: 100.0 mg/kg/injection, schedule: Q01DX009 (ip), vehicle: Klucel (hydroxypropylcellulose) (HPC)
# [7] = dose: 200.0 mg/kg/injection, schedule: Q01DX009 (ip), vehicle: Klucel (hydroxypropylcellulose) (HPC)
# [8] = dose: 400.0 mg/kg/injection, schedule: Q01DX009 (ip), vehicle: Klucel (hydroxypropylcellulose) (HPC)
smiles,measurement,setting,value
CCOC(=O)c1cnc(SC)nc1Nc1ccccc1Br,T/C,[1],92 % of control
same,T/C,[2],97 % of control
same,T/C,[3],98 % of control
O=C1C=CC(=NCl)C=C1,T/C,"dose: 1.25 mg/kg/injection, schedule: Q01DX015 (ip), vehicle: carboxymethylcellulose (CMC)",92 % of control
same,T/C,"dose: 2.5 mg/kg/injection, schedule: Q01DX015 (ip), vehicle: carboxymethylcellulose (CMC)",91 % of control
same,T/C,"dose: 5.0 mg/kg/injection, schedule: Q01DX001 (ip), vehicle: carboxymethylcellulose (CMC)",114 % of control
same,T/C,"dose: 5.0 mg/kg/injection, schedule: Q01DX015 (ip), vehicle: carboxymethylcellulose (CMC)",95 % of control
same,T/C,"dose: 10.0 mg/kg/injection, schedule: Q01DX001 (ip), vehicle: carboxymethylcellulose (CMC)",111 % of control
Cc1cc(S(=O)(=O)F)ccc1NC(=O)CCc1ccc(N2C(N)=NC(N)=NC2(C)C)cc1,T/C,"dose: 100.0 mg/kg/injection, schedule: Q01DX001 (ip), vehicle: Klucel (hydroxypropylcellulose) (HPC)",98 % of control
same,T/C,"dose: 200.0 mg/kg/injection, schedule: Q01DX001 (ip), vehicle: Klucel (hydroxypropylcellulose) (HPC)",102 % of control
CCCCc1csc(=S)[nH]1,T/C,"dose: 100.0 mg/kg/injection, schedule: Q01DX001 (sc), vehicle: carboxymethylcellulose (CMC)",100 % of control
same,T/C,"dose: 200.0 mg/kg/injection, schedule: Q01DX001 (sc), vehicle: carboxymethylcellulose (CMC)",113 % of control
same,T/C,"dose: 400.0 mg/kg/injection, schedule: Q01DX001 (sc), vehicle: carboxymethylcellulose (CMC)",110 % of control
Cc1cc(O)ccc1C1=[N+](C)CC(C)S1 (configuration not stated),T/C,"dose: 12.5 mg/kg/injection, schedule: Q04DX002 (ip), vehicle: saline",103 % of control
same,T/C,"dose: 25.0 mg/kg/injection, schedule: Q04DX002 (ip), vehicle: saline",100 % of control
same,T/C,"dose: 50.0 mg/kg/injection, schedule: Q04DX002 (ip), vehicle: saline",103 % of control
CN1CCN(CCCN2C(c3ccccc3)C2c2ccccc2)CC1 (configuration not stated),T/C,"dose: 50.0 mg/kg/injection, schedule: Q04DX003 (ip), vehicle: saline",101 % of control
same,T/C,[4],93 % of control
same,T/C,[5],93 % of control
CC(C)OC(=O)NC1C=CC=CC=C1,T/C,"dose: 50.0 mg/kg/injection, schedule: Q04DX003 (ip), vehicle: Klucel (hydroxypropylcellulose) (HPC)",98 % of control
same,T/C,[1],93 % of control
same,T/C,[2],104 % of control
same,T/C,[3],106 % of control
O=[N+]([O-])/C=C\c1cc2c3c(c1)CCCN3CCC2,T/C,"dose: 3.13 mg/kg/injection, schedule: Q01DX001 (ip), vehicle: saline with Tween-80",95 % of control
same,T/C,"dose: 3.13 mg/kg/injection, schedule: Q04DX003 (ip), vehicle: saline with Tween-80",98 % of control
same,T/C,"dose: 6.25 mg/kg/injection, schedule: Q01DX001 (ip), vehicle: saline with Tween-80",94 % of control
same,T/C,"dose: 6.25 mg/kg/injection, schedule: Q04DX003 (ip), vehicle: saline with Tween-80",93 % of control
same,T/C,"dose: 12.5 mg/kg/injection, schedule: Q01DX001 (ip), vehicle: saline with Tween-80",95 % of control and 93 % of control
same,T/C,"dose: 12.5 mg/kg/injection, schedule: Q01DX009 (ip), vehicle: saline with Tween-80",100 % of control
same,T/C,"dose: 12.5 mg/kg/injection, schedule: Q04DX003 (ip), vehicle: saline with Tween-80",97 % of control
same,T/C,"dose: 25.0 mg/kg/injection, schedule: Q01DX001 (ip), vehicle: saline with Tween-80",93 % of control
same,T/C,"dose: 25.0 mg/kg/injection, schedule: Q01DX009 (ip), vehicle: saline with Tween-80",102 % of control
same,T/C,"dose: 50.0 mg/kg/injection, schedule: Q01DX001 (ip), vehicle: saline with Tween-80",97 % of control
same,T/C,"dose: 50.0 mg/kg/injection, schedule: Q01DX009 (ip), vehicle: saline with Tween-80",97 % of control
Cc1cc(C)c(C#[N+][O-])c(C)c1,T/C,"dose: 25.0 mg/kg/injection, schedule: Q04DX003 (ip), vehicle: saline with Tween-80",93 % of control
same,T/C,"dose: 50.0 mg/kg/injection, schedule: Q04DX003 (ip), vehicle: saline with Tween-80",98 % of control
C[n+]1ccc(Nc2ccc(NC(=O)c3ccc(Nc4cc[n+](C)c5ccc([N+](=O)[O-])cc45)cc3[N+](=O)[O-])cc2)cc1,T/C,"dose: 12.5 mg/kg/injection, schedule: Q01DX009 (ip), vehicle: saline",112 % of control
same,T/C,"dose: 25.0 mg/kg/injection, schedule: Q01DX001 (ip), vehicle: saline",105 % of control
same,T/C,"dose: 25.0 mg/kg/injection, schedule: Q01DX009 (ip), vehicle: saline",117 % of control
same,T/C,"dose: 25.0 mg/kg/injection, schedule: Q04DX003 (ip), vehicle: suspension in saline",111 % of control
same,T/C,"dose: 50.0 mg/kg/injection, schedule: Q01DX001 (ip), vehicle: saline",98 % of control
same,T/C,"dose: 50.0 mg/kg/injection, schedule: Q01DX009 (ip), vehicle: saline",120 % of control
same,T/C,"dose: 50.0 mg/kg/injection, schedule: Q04DX003 (ip), vehicle: suspension in saline",116 % of control
same,T/C,"dose: 100.0 mg/kg/injection, schedule: Q01DX001 (ip), vehicle: saline",105 % of control
same,T/C,"dose: 100.0 mg/kg/injection, schedule: Q01DX001 (ip), vehicle: suspension in saline",114 % of control
same,T/C,[4],105 % of control and 104 % of control
same,T/C,[5],120 % of control and 123 % of control
same,T/C,"dose: 200.0 mg/kg/injection, schedule: Q04DX003 (ip), vehicle: suspension in saline",190 % of control and 203 % of control
same,T/C,"dose: 400.0 mg/kg/injection, schedule: Q01DX001 (ip), vehicle: suspension in saline",173 % of control and 206 % of control
same,T/C,"dose: 400.0 mg/kg/injection, schedule: Q04DX003 (ip), vehicle: suspension in saline",90 % of control
same,T/C,"dose: 600.0 mg/kg/injection, schedule: Q04DX003 (ip), vehicle: saline",119 % of control
same,T/C,"dose: 800.0 mg/kg/injection, schedule: Q04DX002 (ip), vehicle: saline",102 % of control and 108 % of control
O=c1cc(C(F)(F)F)nc(C(F)(F)F)[nH]1,T/C,"dose: 29.0 mg/kg/injection, schedule: Q01DX Z (ip), vehicle: methylcellulose (MC)",90 % of control
same,T/C,"dose: 45.0 mg/kg/injection, schedule: Q01DX Z (ip), vehicle: methylcellulose (MC)",89 % of control
same,T/C,"dose: 67.0 mg/kg/injection, schedule: Q01DX Z (ip), vehicle: methylcellulose (MC)",89 % of control
same,T/C,"dose: 100.0 mg/kg/injection, schedule: Q01DX Z (ip), vehicle: methylcellulose (MC)",88 % of control
O=C(Nc1cccc2ccccc12)c1ccccc1F,T/C,[6],95 % of control
same,T/C,[7],92 % of control
same,T/C,[8],104 % of control
CC1SC(c2ccccc2)N(c2ccccc2)C1=O (configuration not stated),T/C,[6],98 % of control
same,T/C,[1],100 % of control
same,T/C,[7],114 % of control
same,T/C,[2],98 % of control
same,T/C,[8],106 % of control
same,T/C,[3],100 % of control
COc1ccc(S(=O)(=O)Nc2cc([N+](=O)[O-])ccc2C)cc1,T/C,[6],100 % of control
same,T/C,[7],100 % of control
same,T/C,[8],98 % of control
N#Cc1c(Cl)nsc1Cl,T/C,[6],97 % of control
same,T/C,[7],102 % of control
Cc1ccc(NC(=S)N2CCC(CCCC3CCN(C(=S)Nc4ccc(C)cc4C)CC3)CC2)c(C)c1,T/C,"dose: 50.0 mg/kg/injection, schedule: Q01DX009 (ip), vehicle: Klucel (hydroxypropylcellulose) (HPC)",98 % of control
same,T/C,[6],107 % of control
same,T/C,[1],97 % of control
same,T/C,[7],95 % of control
same,T/C,[2],95 % of control
CC1CCC(C(C)C)C(OC(=O)c2c([N+](=O)[O-])ccc([N+](=O)[O-])c2Br)C1 (configuration not stated),T/C,[6],105 % of control
same,T/C,[7],100 % of control
COc1cc(N(CCCl)CCCl)c(OC)cc1C=Nc1ccc(-c2nc(Cc3ccccc3)sc2C)cc1,T/C,"dose: 4.0 mg/kg/injection, schedule: Q01DX009 (ip), vehicle: other",117 % of control
same,T/C,"dose: 6.0 mg/kg/injection, schedule: Q01DX009 (ip), vehicle: other",123 % of control
same,T/C,"dose: 9.0 mg/kg/injection, schedule: Q01DX009 (ip), vehicle: other",120 % of control
same,T/C,"dose: 12.5 mg/kg/injection, schedule: Q01DX001 (ip), vehicle: carboxymethylcellulose (CMC)",105 % of control
same,T/C,"dose: 25.0 mg/kg/injection, schedule: Q01DX001 (ip), vehicle: carboxymethylcellulose (CMC)",105 % of control
same,T/C,"dose: 44.0 mg/kg/injection, schedule: Q01DX001 (ip), vehicle: carboxymethylcellulose (CMC)",110 % of control
same,T/C,"dose: 44.0 mg/kg/injection, schedule: Q01DX009 (ip), vehicle: other",160 % of control
same,T/C,"dose: 66.0 mg/kg/injection, schedule: Q01DX009 (ip), vehicle: carboxymethylcellulose (CMC)",102 % of control
same,T/C,"dose: 100.0 mg/kg/injection, schedule: Q01DX009 (ip), vehicle: carboxymethylcellulose (CMC)",88 % of control
same,T/C,"dose: 150.0 mg/kg/injection, schedule: Q01DX001 (ip), vehicle: carboxymethylcellulose (CMC)",153 % of control
